Laboratory results: patent publication US6174888A, “2-amino-7-(1-substituted-2-hydroxyethyl)-3,5-dihydropyrrolo[3,2-D]pyrimidin -4-ones” (Novartis AG, priority 1998, dated 2001)

Legend:
PNP = PNP inhibition in vivo: increased plasma level of inosine in mice; conditions: 10 mg/Kg p.o.
Method: Briefly, mice are treated orally with the PNP inhibitor suspended in fortified cornstarch (3% cornstarch suspension in water with 0.33% Tween 80 and 5% PEG 400) at a final volume of 10 ml/kg. One or more hours after a single oral dose of compound, the mice are bled by cardiac puncture into 25 U/ml heparin to obtain plasma. The samples are analyzed for both inosine and drug levels by a gradient reverse-phase high performance liquid chromatography (HPLC) method (see Anal Chem, 1977, 49:2237-41). Quantitation is performed using an internal standard method with 2',3'-dideoxyinosine (DDI) as the internal standard.

Human CCRF-CEM cells = assay: potentiation of the cell growth inhibitory activity (cytotoxicity) of 2'-deoxyguanosine, CCRF-CEM cell assay; format: cell-based; conditions: d-Guo 10 μM, increase in cell number between 0 and 72 hours
Method: The selective suppression of spontaneous T-cell proliferation in vitro is measured by the potentiation of the cell growth inhibitory activity (cytotoxicity) of 2'-deoxyguanosine (d-Guo) by the compounds of the invention, determined as follows: Human CCRF-CEM cells are grown in RPMI-1640 medium. To suspension cultures of these cells, d-Guo at a fixed concentration (10 μM) and the candidate PNP inhibitor at varied concentrations are added and the number of cells are determined in a Coulter counter 24, 48, and 72 hours thereafter. […] This method is similar to that previously used to determine the effectiveness of PNP inhibitors on potentiation of the toxicity of d-Guo. [See D. A. Shewach et al., Cancer Res., 46, 519 (1986); J. C. Sircar et al., Agents and Actions, 21, 253 (1987), also Methods in Pharmacology, D. M. Paten, ed. 1985, pp. 147-162].

[1] = tested on: collagen II induced arthritis; assay: collagen II induced arthritis in mice model; format: in vivo, mice (DBA/1LacJ); conditions: 20 mg/Kg/day, oral
Method: The antiarthritic activity can be determined in the collagen II induced arthritis in mice model. DBA/1LacJ female mice, 6-8 weeks old, are immunized with 100 μg of chicken type II collagen emulsified in Freund's complete adjuvant (FCA) by injecting at the base of the tail on day 0. On day 17 after collagen injection, the immune response to type II collagen is boosted with a subcutaneous injection of 200 μg LPS solubilized in PBS. Paws are examined on days 17, 21, 24, 28, 31, 35, and 42 and scored for the symptoms of arthritis based on criteria such as inflammation, swelling and ankylosis. Compounds are suspended in corn starch vehicle and administered orally to mice once daily beginning on day 1 and continuing through day 42.

Calf spleen PNP = target: T1, Calf spleen PNP (Bos taurus, UniProt P55859); assay: PNP inhibition in vitro, colorimetric enzymic determination of inorganic phosphate (PNP and xanthine oxidase, substrate inosine); format: biochemical; conditions: 1 mM phosphate concentration
T1 construct: Calf spleen PNP is used as the enzyme source; from tissue; host or cells: calf spleen
T1 sequence (P55859 1-289): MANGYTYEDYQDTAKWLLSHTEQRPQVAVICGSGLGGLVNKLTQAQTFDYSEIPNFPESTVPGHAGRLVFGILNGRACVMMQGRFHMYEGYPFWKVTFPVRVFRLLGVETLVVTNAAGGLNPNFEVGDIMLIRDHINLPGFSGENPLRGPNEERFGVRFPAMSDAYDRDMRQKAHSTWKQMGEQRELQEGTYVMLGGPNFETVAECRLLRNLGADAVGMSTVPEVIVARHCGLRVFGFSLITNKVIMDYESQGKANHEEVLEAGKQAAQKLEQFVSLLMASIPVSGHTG
Method: PNP inhibition can also be determined in vitro as follows: An enzymic method for the determination of inorganic phosphate (see Chem. Pharm. Bull., 1981, 29:1451-5), based on the principle of forming hydrogen peroxide with purine nucleoside phosphorylase (PNP) and xanthine oxidase, is used to colorimetrically measure the degree of linkage between enzyme and substrate (inosine). Calf spleen PNP is used as the enzyme source. The IC50 values for the compounds studied are determined graphically at two phosphate concentrations (1 and 50 mM) from a plot of percent inhibition versus compound concentration.

transplant rejection = assay: mouse tail skin transplant rejection model; format: in vivo, mouse (C57BL/10-SnJ and B10.BR/SgSnJ)
Text: Protection against transplant rejection can be determined in a mouse tail skin transplantation procedure.
Mice are anesthetized with tribromoethanol i.p. injection according to the method of Papaioannou and Fox (Lab. Animal Science 1993;43:189-92). The mouse tail skin transplant rejection model is a modification of that described by Baily and Usama, (Transpl. Bull. 1960;7:424-5). Four skin grafts per mouse are exchanged between strains [C57BL/10-SnJ (H-2K^b) and B10.BR/SgSnJ (H-2K^k)] at surgery (d0). Fitted skin grafts are made with a scalpel, and tail graft sites are protected with tubing for 2 days following surgery. Mouse tails are evaluated at day 7 for missing grafts. Only those graft sites that have patent grafts at day 7 are evaluated at later scoring intervals. Grafts are scored numerically for signs of rejection at ~weekly scoring intervals starting day 14. Dose-group mean graft scores are compared statistically.

| SMILES | increase in the plasma level of inosine (PNP) | IC50 (Human CCRF-CEM cells) [nM] | antiarthritic activity [1] | IC50 (Calf spleen PNP) [nM] | protection against transplant rejection (transplant rejection; 50 mg/Kg/day, mouse) | effect of combination with cyclosporin in the transplant rejection model (transplant rejection; combination of a compound of the invention, e.g. of example 1, and cyclosporin) |
| --- | --- | --- | --- | --- | --- | --- |
| Nc1nc2c([C@@H](CO)c3ccccc3F)c[nH]c2c(=O)[nH]1 [Example 1, 2-amino-7-[1-(2-flourophenyl)-2(R)-hydroxyethyl]-3,5-dihydro-4H-pyrrolo[3,2-d]pyrimidin-4-one] | significant increase | ~75 | effective | ~10 | effective in protecting against transplant rejection | superior to either cyclosporin or the PNP inhibitor alone |
| Nc1nc2c([C@@H](CO)c3ccccc3)c[nH]c2c(=O)[nH]1 [3(f), 2-Amino-7-(2(S)-hydroxy-1-phenylethyl)-3,5-dihydro-4H-pyrrolo[3,2-d]-pyrimidin-4-one] | significant increase | ~100 | – | ~10 | – | – |
